Consider six compounds from EP4652843A1, “BIOPESTICIDE COMPOSITION, PROCEDURE OF OBTAIN THEREOF, AND METHOD FOR CONTROLLING AND TREATING BROAD SPECTRUM OF PESTS IN PLANTS” (Kimitec Biogroup S.L, priority 2024, dated 2025).

Data set [1] has as its system Tuta absoluta. Briefly: Contact mortality (Leaf Disc Method), solvent comparison, Tuta absoluta. The following applies: Group A: individual solvents, diluted at 0.3% (3cc/L) in water without formulation, Abbott's corrected. As to the method: (§1) The objective of this bioassay is to evaluate the effect of test items on the mortality of insect (Fam Tortricidae and Fam Gelechiidae) and other side pests as target in a short/medium-term (0-24 hours) by topical application. All trials were carried out on whole alive target. Four independent replicates of the whole setup were performed for each target as follow: (Figure 12) first of all, 10g/L agar-agar was prepared (1) and deposited in petri dish according to the target (2), after adding cut leaf disc around 4 cm diameter from healthy bean plants (3), fixing the plant material on the semi solid agar in the petri dish (4). Insect adults (from 3 to 15 according to the target) are setting on surface of leaf disc (5). Biopesticide composition was sprayed 0.1-02 ml per experimental unit (6), a total of 10 replicates for each treatment (biopesticide composition and positive control; commercial products based on anthranilic diamide and emamectin to recommend doses in the label) were used in each experiment and incubated and evaluated after 24 hours (7).
(§2) Insects and mites were considered dead if no movement was apparent after probing with the tip of a fine brush under stereoscopic magnifying glass. Mortality percentage was calculated in treatment and control groups. If the mortality in negative control is above 20% the test was discarded.
(§3) Means of %M were compared using a one-way analysis of variance (ANOVA, p<0.05) and LSD-test as a post hoc test to verify significant differences between single treatments using Statgraphics Centurion XVII software. When nonnormality in the data was detected, an additional Kruskal-Wallis test was conducted, and Box-and-Whisker Plot (Median Notch) was presented.
(§4) The different compositions were tested by trials that were carried out on different relevant insect pests and acari including: Tuta absoluta, Bemisia tabaci, Myzus persicae, Frankliniella occidentalis and Tetranychus urticae. The bioassay type used was contact mortality (Leaf Disc Method) described in the example 4.
(§5) The main treatments included in the comparison of efficacy are: Group A: Individual solvents: Benzyl alcohol, ethanol, isopropanol, and water were applied directly (purity as in the label) diluted at 0.3% (3cc/L) in water without formulation. Group B: Vegetable matrix extracts were extracted with different solvents such as benzyl alcohol, ethanol, isopropanol, and water in a blend of inert ingredients as follows: […]

For data set [2] the following is noted: cited from earlier work.
Data set [3] relates to Bemisia tabaci. The data set can be described thus: Contact mortality (Leaf Disc Method), solvent comparison, Bemisia tabaci. The following applies: Group A: individual solvents, diluted at 0.3% (3cc/L) in water without formulation, Abbott's corrected. As to the method:
as §1, §2, §3, §4, §5

In data set [4] the test system is Myzus persicae. The data set can be described thus: Contact mortality (Leaf Disc Method), solvent comparison, Myzus persicae. The conditions noted are these: Group A: individual solvents, diluted at 0.3% (3cc/L) in water without formulation, Abbott's corrected. As to the method: as §1, §2, §3, §4, §5
In data set [5] the test system is Frankliniella occidentalis. The data set can be described thus: Contact mortality (Leaf Disc Method), solvent comparison, Frankliniella occidentalis. The following applies: Group A: individual solvents, diluted at 0.3% (3cc/L) in water without formulation, Abbott's corrected. As to the method: as §1, §2, §3, §4, §5
The subject of data set [6] is Tetranychus urticae. The data set can be described thus: Contact mortality (Leaf Disc Method), solvent comparison, Tetranychus urticae. The conditions noted are these: Group A: individual solvents, diluted at 0.3% (3cc/L) in water without formulation, Abbott's corrected. As to the method: as §1, §2, §3, §4, §5
The subject of data set [7] is Grapholita molesta. The data set can be described thus: Field trial against Grapholita molesta in Prunus persica. The data set is classed as in vivo. The following applies: 0,2cc/L, % efficacy (abbott) on fruit damage incidence, one value per plot (1-3). As to the method: (§6) The biopesticide composition (table 2) was tested in field trials against Grapholita molesta in Prunus persica […] to validate efficacy, parametrised by % efficacy (abbott) on fruit damage incidence. 3 plots were treated, each plot has 4-6 trees with a sample size of 100-300 fruits/ plot. The trees were treated with biopesticide composition and positive control; commercial products based on chlorantraniliprole for recommend doses in the label in 2 applications at interval of 10 days. Table 9. % Efficacy against Grapholita molesta in field trials.

For data set [8], the system named is Cydia pomonella. The data set can be described thus: Field trial against Cydia pomonella in Pyrus communis and Malus domestica. The following applies: 0,2cc/L, one value per plot (1-3). The data set is classed as in vivo. As to the method: as §6
The same test was repeated in Pyrus communis and Malus domestica to validate efficacy against Cydia pomonella. Table 10. % Efficacy against Cydia pomonella in field trials

Data set [9] has as its system lepidoptera larvae (Tuta absoluta). Briefly: Contact mortality (Leaf Disc Method), Tuta absoluta larvae. The data set is classed as in vivo. The following applies: dose 0.5 kg/ha; 24H after application; Abbott's corrected; mean of 3 repetitions. As to the method: (§7) All trials were carried out on whole alive target.
(§8) Mortality percentage was calculated in treatment and control groups.

Data set [10] concerns lepidoptera larvae (Grapholita molesta). The data set can be described thus: Antifeedant effects: settling inhibition, Grapholita molesta larvae. The data set is classed as in vivo. The following applies: dose 1.5 g/L; 24H after application. As to the method:
The concept of antifeedant as a substance that acts on insect behaviour involves feeding reduction (FR) and settling inhibition (SI). In some cases, settling inhibition is considered as indirect repellent effect. […] Feeding reduction index (%FR) or settling inhibition index (%SI) was calculated according to the following formula: % FR or SI = (1−((T)/(C)))∗100 [formula] where: T= Settling of treated plants; C= Setting of control plants. Table 3. In vitro efficacy against lepidoptera larvae (Grapholita molesta)

Data set [11] shares this test system. The data set can be described thus: Contact mortality (Leaf Disc Method), Grapholita molesta larvae. The data set is classed as in vivo. The conditions noted are these: dose 1.5 g/L; 24H after application; Abbott's corrected; mean of 4 repetitions. As to the method:
as §7, §8

Data set [12] relates to lepidoptera larvae (Tuta absoluta). The data set can be described thus: Antifeedant effects: feeding reduction (choice assays), Tuta absoluta larvae. It counts as in vivo. The conditions noted are these: dose 0.5 kg/ha, surface covered by mines, 24H after application.
Data set [13] concerns Tuta absoluta. Briefly: Field trial against Tuta absoluta in Solanum lycopersicum. It counts as in vivo. The following applies: 1,5 gr/L, % efficacy (Henderson & Tilton) on damaged leaflets, one value per plot (1-3). As to the method:
The biopesticide composition was tested in field trials against Tuta absoluta in Solanum lycopersicum to validate efficacy, parametrised by % efficacy (Henderson & Tilton) on damaged leaflets (50 random leaflets/Plot). 3 plots were treated, each plot has 10m^2. The plants were treated with biopesticide composition and positive control; commercial products based on emamectin for recommend doses in the label in 3 applications at interval of 7 days. Table 11. % Efficacy against Tuta absoluta in field trials

The test system of data set [14] is lepidoptera adults (Cydia pomonella). Briefly: Contact mortality (Leaf Disc Method), Cydia pomonella adults. The conditions noted are these: dose 1.5 g/L; 24H after application; Abbott's corrected. It counts as in vivo. As to the method: as §7, §8
Data set [15] deals with lepidoptera adults (Grapholita molesta). Briefly: Contact mortality (Leaf Disc Method), Grapholita molesta adults. The data set is classed as in vivo. The following applies: dose 1.5 g/L; 24H after application; Abbott's corrected. As to the method: as §7, §8

Where “and” joins values, the source holds several entries; their conditions need not be identical. Identical values can stand only once. Marks after values point to notes of the source that are not given here.

Consider `OCc1ccccc1` [Benzyl alcohol (BnOH), Benzyl alcohol], for which the “Contact mortality (%M) Tuta absoluta” value in [1] is given as 29.6 ± 5.7 ^a %. The solubility in water in data set [2] is reported as 4 g/100 mL. Further, in data set [3], the “Contact mortality (%M) Bemisia tabaci” value is 49.8 ± 6.2 ^a %. The “Contact mortality (%M) Myzus persicae” value in data set [4] is 19.8 ± 6.2 ^a %. Moreover, the “Contact mortality (%M) Frankliniella occidentalis” value in [5] is on record as 12.5 ± 7.8 ^a %. For the same compound, in [6], the “Contact mortality (%M) Tetranychus urticae” value is listed as 33.4 ± 4.1 ^a %.
As for `CNC(=O)c1cc(Cl)cc(C)c1NC(=O)c1cc(Br)nn1-c1ncccc1Cl` [Chlorantraniliprole], the “% Efficacy against Grapholita molesta in field trials” value was 58% and 63% and 42% in data set [7] (14 days after the last application); 62% and 51% and 61% in [7] (21 days after the last application). Also, the “% Efficacy against Cydia pomonella in field trials” value in data set [8] (10 days after the last application) was 59% and 62% and 75%; in data set [8] (20 days after the last application), 68% and 62% and 73%.
Take `CCO` [Ethanol (EtOH), Ethanol]: the “Contact mortality (%M) Tuta absoluta” value in [1] is reported as 0.0 ± 0.0 ^c %. The “Contact mortality (%M) Bemisia tabaci” value in data set [3] is 23.5 ± 8.4 ^b %. Moreover, the “Contact mortality (%M) Myzus persicae” value in data set [4] was 16.7 ± 9.1 ^a %. In addition, the “Contact mortality (%M) Frankliniella occidentalis” value in data set [5] was 0.0 ± 0.0 ^b %. Also, in data set [6], the “Contact mortality (%M) Tetranychus urticae” value is given as 0.0 ± 0.0 ^b %.
Regarding `CC(C)O` [Isopropanol (IPN), Isopropanol], in data set [1], the “Contact mortality (%M) Tuta absoluta” value is reported as 11.4 ± 7.2 ^b %. Also, the “Contact mortality (%M) Bemisia tabaci” value in data set [3] is 0.0 ± 0.0 ^c %. For the same compound, the “Contact mortality (%M) Myzus persicae” value in [4] is reported as 0.0 ± 0.0 ^b %. Besides, the “Contact mortality (%M) Frankliniella occidentalis” value in [5] is 0.0 ± 0.0 ^b %. Further, the “Contact mortality (%M) Tetranychus urticae” value in [6] is given as 0.0 ± 0.0 ^b %.
Consider `O` [Water], for which, in data set [1] (1440 min), the “Contact mortality (%M) Tuta absoluta” value is listed as 0.0 ± 0.0 ^c %. For the same compound, the “Contact mortality (%M) Bemisia tabaci” value in data set [3] (1440 min) is reported as 0.0 ± 0.0 ^c %. Besides, the “Contact mortality (%M) Myzus persicae” value in data set [4] (1440 min) is 0.0 ± 0.0 ^b %. The “Contact mortality (%M) Frankliniella occidentalis” value in [5] (1440 min) is reported as 0.0 ± 0.0 ^b %. Also, the “Contact mortality (%M) Tetranychus urticae” value in data set [6] (1440 min) is 0.0 ± 0.0 ^b %.
As for Emamectin, in [9], the “Contact mortality in-leaf (%M)” value is on record as 80.3 ± 8.7 ^(a) %. Also, the “Contact mortality out-leaf (%M)” value in data set [9] is reported as 65.3 ± 3.8 ^(ab) %. Further, in data set [10], the “Settling inhibition (%SI)” value turned out to be 36.0 ± 5.8%. The results for the “Contact mortality (%M)” value in data set [11], in data set [14] and in [15] were 100.0 ± 0.0 ^(a) %, 94.5 ± 1.9 ^(a) % and 88.9 ± 2.0 ^(a) %, respectively. Further, the “Feeding reduction (%FR)” value in [12] is reported as 59.1 ± 0.8 %. Besides, the “% Efficacy against Tuta absoluta in field trials” value in data set [13] (7 days after 1st application) was 62% and 43% and 71%; in [13] (7 days after 2nd application) it was 53% and 58%; in [13] (7 days after 3rd application), 67% and 61% and 55%.
